# According to patent US12539292B2, “BRM targeting compounds and associated methods of use” (Arvinas Operations, Inc., priority 2018, dated 2026):
# Like-named read-outs stand apart in the source and are kept apart here.
# Biological target: T1, BRM (Homo sapiens, UniProt P51531)
# T1 construct: In-Cell Western Screen of BRM Degradation in SW1573 Cells; endogenous in cells; host or cells: SW1573
# Experiment: In-cell Western screen of BRM degradation in SW1573 cells (Dmax and DC50)
# Type: cell-based
# Outline: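 Adherent SW1573 cultures exposed to test compounds for 18-20 h were processed for in-cell Western after PFA fixation and detergent permeabilization. BRM degradation was reported as Dmax and DC50.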
# [1] = BRM degradation, read-out: BRM DC50
# [2] = BRM degradation, SW1573 cells, Table 2D, read-out: **Dmax (%) (% degraded)
# [3] = BRM degradation, SW1573 cells, Table 2D, read-out: *DC50
# [4] = BRM degradation, SW1573 cells, read-out: DC50
# T1 sequence (P51531 whole entry): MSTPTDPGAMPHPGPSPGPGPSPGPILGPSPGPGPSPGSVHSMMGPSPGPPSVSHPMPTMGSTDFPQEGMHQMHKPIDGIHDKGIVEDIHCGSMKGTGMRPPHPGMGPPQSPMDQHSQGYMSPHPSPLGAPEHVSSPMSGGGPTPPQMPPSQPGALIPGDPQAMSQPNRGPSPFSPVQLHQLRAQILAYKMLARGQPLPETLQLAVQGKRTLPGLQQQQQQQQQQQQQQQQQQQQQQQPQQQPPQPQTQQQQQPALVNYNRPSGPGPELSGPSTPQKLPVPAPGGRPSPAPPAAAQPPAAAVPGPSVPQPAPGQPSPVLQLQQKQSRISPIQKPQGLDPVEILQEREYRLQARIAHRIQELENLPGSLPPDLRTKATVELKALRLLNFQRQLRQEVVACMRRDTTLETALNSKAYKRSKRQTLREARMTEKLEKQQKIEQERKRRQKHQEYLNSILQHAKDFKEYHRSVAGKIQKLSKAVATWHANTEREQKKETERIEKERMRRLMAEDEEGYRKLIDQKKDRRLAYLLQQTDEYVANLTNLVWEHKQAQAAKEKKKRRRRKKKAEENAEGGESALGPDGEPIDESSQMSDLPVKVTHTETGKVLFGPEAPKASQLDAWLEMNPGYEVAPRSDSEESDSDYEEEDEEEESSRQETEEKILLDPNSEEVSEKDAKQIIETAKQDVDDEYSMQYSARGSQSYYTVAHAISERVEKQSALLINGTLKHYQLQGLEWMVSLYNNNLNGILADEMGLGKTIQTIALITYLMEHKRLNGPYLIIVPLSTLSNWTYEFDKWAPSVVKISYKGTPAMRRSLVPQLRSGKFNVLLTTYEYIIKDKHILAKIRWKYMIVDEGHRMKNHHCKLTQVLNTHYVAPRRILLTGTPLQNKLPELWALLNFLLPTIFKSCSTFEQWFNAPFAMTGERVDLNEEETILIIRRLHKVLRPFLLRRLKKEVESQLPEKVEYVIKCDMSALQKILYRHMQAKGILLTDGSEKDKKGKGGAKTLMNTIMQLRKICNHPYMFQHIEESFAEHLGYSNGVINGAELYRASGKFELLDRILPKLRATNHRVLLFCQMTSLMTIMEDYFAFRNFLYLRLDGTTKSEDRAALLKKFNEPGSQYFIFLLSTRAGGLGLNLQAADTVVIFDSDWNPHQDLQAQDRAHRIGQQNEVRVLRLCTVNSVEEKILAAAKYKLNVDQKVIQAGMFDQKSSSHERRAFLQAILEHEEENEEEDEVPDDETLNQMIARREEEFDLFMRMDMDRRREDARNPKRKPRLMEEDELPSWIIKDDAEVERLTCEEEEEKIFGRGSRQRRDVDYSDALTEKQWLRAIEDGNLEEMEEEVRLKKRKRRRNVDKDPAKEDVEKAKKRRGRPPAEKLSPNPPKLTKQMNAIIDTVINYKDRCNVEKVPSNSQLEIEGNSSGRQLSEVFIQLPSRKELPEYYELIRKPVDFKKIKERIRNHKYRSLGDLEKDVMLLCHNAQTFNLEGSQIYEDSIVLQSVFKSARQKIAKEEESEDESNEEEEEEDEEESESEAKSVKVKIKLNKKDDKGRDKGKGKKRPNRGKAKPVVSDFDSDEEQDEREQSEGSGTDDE
smiles,measurement,setting,value
"Cc1ncsc1-c1ccc([C@H](C)NC(=O)[C@@H]2C[C@@H](O)CN2C(=O)[C@@H](c2cc(OCCC3CCN(C(=O)[C@H]4C[C@H](CN5CCC(n6cc(-c7cc(-c8ccccc8O)nnc7N)cn6)CC5)C4)CC3)no2)C(C)C)cc1 [compound 468, (2S,4R)-1-((R)-2-(3-(2-(1-((1r,3R)-3-((4-(4-(3-amino-6-(2-hydroxyphenyl)pyridazin-4-yl)-1H-pyrazol-1-yl)piperidin-1-yl)methyl)cyclobutane-1-carbonyl)piperidin-4-yl)ethoxy)isoxazol-5-yl)-3-methylbutanoyl)-4-hydroxy-N-((S)-1-(4-(4-methylthiazol-5-yl)phenyl)ethyl)pyrrolidine-2-carboxamide]",DC50,"target protein degradation, read-out: BRM DC50",> 30 nM
"Cc1ncsc1-c1ccc([C@H](C)NC(=O)[C@@H]2C[C@@H](O)CN2C(=O)[C@@H](c2cc(N3CCN(C[C@H]4C[C@H](Oc5cc(N6C7CCC6CN(c6cc(-c8ccccc8O)nnc6N)C7)ccn5)C4)CC3)no2)C(C)C)cc1 [compound 499, (2S,4R)-1-((2R)-2-(3-(4-(((1r,3R)-3-((4-(3-(3-amino-6-(2-hydroxyphenyl)pyridazin-4-yl)-3,8-diazabicyclo[3.2.1]octan-8-yl)pyridin-2-yl)oxy)cyclobutyl)methyl)piperazin-1-yl)isoxazol-5-yl)-3-methylbutanoyl)-4-hydroxy-N-((S)-1-(4-(4-methylthiazol-5-yl)phenyl)ethyl)pyrrolidine-2-carboxamide]",DC50,[1],< 2.5 nM
same,Dmax,"SW1573, % degraded, when tested at the top concentration of between 0.3 and 10 μM, read-out: BRM Dmax (%)",> 75%
"Cc1ncsc1-c1ccc([C@H](CCCC(N)=O)NC(=O)[C@@H]2C[C@@H](O)CN2C(=O)[C@@H](c2cc(OCCN3CCC(O[C@H]4C[C@H](Oc5cc(N6C7CCC6CN(c6cc(-c8ccccc8O)nnc6N)C7)ccn5)C4)CC3)no2)C(C)C)cc1 [compound 556, (2S,4R)-N-((S)-5-amino-1-(4-(4-methylthiazol-5-yl)phenyl)-5-oxopentyl)-1-((2R)-2-(3-(2-(4-((1r,3R)-3-((4-(3-(3-amino-6-(2-hydroxyphenyl)pyridazin-4-yl)-3,8-diazabicyclo[3.2.1]octan-8-yl)pyridin-2-yl)oxy)cyclobutoxy)piperidin-1-yl)ethoxy)isoxazol-5-yl)-3-methylbutanoyl)-4-hydroxypyrrolidine-2-carboxamide]",Dmax,[2],> 75%
same,DC50,[3],< 2.5 nM
"Cc1cc([C@@H](C(=O)N2C[C@H](O)C[C@H]2C(=O)N[C@H](COCCCCCc2cc(-c3ccccc3O)nnc2N)c2ccc(-c3scnc3C)cc2)C(C)C)on1 [compound 527, (2S,4R)-N-((S)-2-((5-(3-amino-6-(2-hydroxyphenyl)pyridazin-4-yl)pentyl)oxy)-1-(4-(4-methylthiazol-5-yl)phenyl)ethyl)-4-hydroxy-1-((S)-3-methyl-2-(3-methylisoxazol-5-yl)butanoyl)pyrrolidine-2-carboxamide]",DC50,[1],> 30 nM
"Cc1ncsc1-c1ccc([C@H](C)NC(=O)[C@@H]2C[C@@H](O)CN2C(=O)[C@@H](c2cc(OC/C=C/c3ccc(O[C@H]4C[C@H](Oc5cc(N6C7CCC6CN(c6cc(-c8ccccc8O)nnc6N)C7)ccn5)C4)cn3)no2)C(C)C)cn1 [compound 207, (2S,4R)-1-((2R)-2-(3-(((E)-3-(5-((1r,3R)-3-((4-(3-(3-amino-6-(2-hydroxyphenyl)pyridazin-4-yl)-3,8-diazabicyclo[3.2.1]octan-8-yl)pyridin-2-yl)oxy)cyclobutoxy)pyridin-2-yl)allyl)oxy)isoxazol-5-yl)-3-methylbutanoyl)-4-hydroxy-N-((S)-1-(6-(4-methylthiazol-5-yl)pyridin-3-yl)ethyl)pyrrolidine-2-carboxamide]",DC50,[4],< 2.5 nM
same,Dmax,"BRM degradation, SW1573 cells, tested at the top concentration of between 0.3 and 10 μM, read-out: Dmax (%) (% degraded)",> 75%
Cc1ncsc1-c1ccc([C@H](C)NC(=O)[C@@H]2C[C@@H](O)CN2C(=O)[C@@H](c2cc(OCCN3CCC(O[C@H]4C[C@H](Oc5cc(N6C7CCC6CN(c6ccnc8nc(-c9ccccc9O)cn68)C7)ccn5)C4)CC3)no2)C(C)C)cc1 [compound 515],DC50,[1],> 30 nM
"CNC(=O)CCC[C@H](NC(=O)[C@@H]1C[C@@H](O)CN1C(=O)[C@H](c1cc(OCCN2CCC(O[C@H]3C[C@H](Oc4cc(N5C6CCC5CN(c5cc(-c7ccccc7O)nnc5N)C6)ccn4)C3)CC2)no1)C(C)C)c1ccc(-c2scnc2C)cc1 [compound 569, (2S,4R)-1-((2S)-2-(3-(2-(4-((1r,3S)-3-((4-(3-(3-amino-6-(2-hydroxyphenyl)pyridazin-4-yl)-3,8-diazabicyclo[3.2.1]octan-8-yl)pyridin-2-yl)oxy)cyclobutoxy)piperidin-1-yl)ethoxy)isoxazol-5-yl)-3-methylbutanoyl)-4-hydroxy-N-((S)-5-(methylamino)-1-(4-(4-methylthiazol-5-yl)phenyl)-5-oxopentyl)pyrrolidine-2-carboxamide]",DC50,[3],> 30 nM
"Cc1nccn1-c1ccc([C@H](C)NC(=O)[C@@H]2C[C@@H](O)CN2C(=O)C(c2cc(N3CCC(CN4CCC(O[C@H]5C[C@H](Oc6cc(N7C8CCC7CN(c7cc(-c9ccccc9O)nnc7N)C8)ccn6)C5)CC4)CC3)no2)C(C)C)cc1 (stereo partly drawn) [compound 607, (2S,4R)-1-((2R)-2-(3-(4-((4-((1r,3r)-3-((4-(3-(3-amino-6-(2-hydroxyphenyl)pyridazin-4-yl)-3,8-diazabicyclo[3.2.1]octan-8-yl)pyridin-2-yl)oxy)cyclobutoxy)piperidin-1-yl)methyl)piperidin-1-yl)isoxazol-5-yl)-3-methylbutanoyl)-4-hydroxy-N-((S)-1-(4-(2-methyl-1H-imidazol-1-yl)phenyl)ethyl)pyrrolidine-2-carboxamide]",Dmax,[2],> 75%
same,DC50,[3],< 2.5 nM
"Cc1ncsc1-c1ccc([C@H](C)NC(=O)[C@@H]2C[C@@H](O)CN2C(=O)[C@@H](c2cc(OCCN3CC4CC(C3)N4CCOc3cc(N4C5CCC4CN(c4cc(-c6ccccc6O)nnc4N)C5)ccn3)no2)C(C)C)cc1 [compound 133, (2S,4R)-1-((2R)-2-(3-(2-(6-(2-((4-(3-(3-amino-6-(2-hydroxyphenyl)pyridazin-4-yl)-3,8-diazabicyclo[3.2.1]octan-8-yl)pyridin-2-yl)oxy)ethyl)-3,6-diazabicyclo[3.1.1]heptan-3-yl)ethoxy)isoxazol-5-yl)-3-methylbutanoyl)-4-hydroxy-N-((S)-1-(4-(4-methylthiazol-5-yl)phenyl)ethyl)pyrrolidine-2-carboxamide]",DC50,[4],< 2.5 nM
same,Dmax,"BRM degradation, SW1573 cells, when tested at the top concentration of between 0.3 and 10 μM, read-out: Dmax (%) (% degraded)",> 75%
"Cc1ncsc1-c1ccc([C@H](C)NC(=O)[C@@H]2C[C@@H](O)CN2C(=O)[C@H](c2cc(N3CCC(CN4CCC(O[C@H]5C[C@H](Oc6cc(N7C8CCC7CN(c7cc(-c9ccccc9O)nnc7N)C8)ccn6)C5)CC4)CC3)no2)C(C)C)c(O)c1 [compound 696, (2S,4R)-1-((2S)-2-(3-(4-((4-((1r,3r)-3-((4-(3-(3-amino-6-(2-hydroxyphenyl)pyridazin-4-yl)-3,8-diazabicyclo[3.2.1]octan-8-yl)pyridin-2-yl)oxy)cyclobutoxy)piperidin-1-yl)methyl)piperidin-1-yl)isoxazol-5-y1)-3-methylbutanoyl)-4-hydroxy-N-((S)-1-(2-hydroxy-4-(4-methylthiazol-5-yl)phenyl)ethyl)pyrrolidine-2-carboxamide]",DC50,[4],> 30 nM
"Cc1ncsc1-c1ccc([C@H](C)NC(=O)[C@@H]2C[C@@H](O)CN2C(=O)[C@@H](c2cc(N3CCC(CN4CCN(C[C@H]5C[C@H](Oc6cc(N7C8CCC7CN(c7cc(-c9ccccc9O)nnc7N)C8)ccn6)C5)C(C)C4C)CC3)no2)C(C)C)cc1 (stereo partly drawn) [compound 705, (2S,4R)-1-((2R)-2-(3-(4-((4-(((1r,3r)-3-((4-(3-(3-amino-6-(2-hydroxyphenyl)pyridazin-4-yl)-3,8-diazabicyclo[3.2.1]octan-8-yl)pyridin-2-yl)oxy)cyclobutyl)methyl)-2,3-dimethylpiperazin-1-yl)methyl)piperidin-1-yl)isoxazol-5-yl)-3-methylbutanoyl)-4-hydroxy-N-((S)-1-(4-(4-methylthiazol-5-yl)phenyl)ethyl)pyrrolidine-2-carboxamide]",DC50,[4],< 2.5 nM
same,Dmax,"BRM degradation, SW1573 cells, read-out: Dmax (% degraded)",> 75%
"Cc1ncsc1-c1ccc([C@H](C)NC(=O)[C@@H]2C[C@@H](O)CN2C(=O)[C@H](c2cc(N3CCC4(CC3)CN(CC3CCN(C[C@H]5C[C@H](Oc6cc(N7C8CCC7CN(c7cc(-c9ccccc9O)nnc7N)C8)ccn6)C5)CC3)C4)no2)C(C)C)cc1 [compound 694, (2S,4R)-1-((2S)-2-(3-(2-((1-(((1r,3r)-3-((4-(3-(3-amino-6-(2-hydroxyphenyl)pyridazin-4-yl)-3,8-diazabicyclo[3.2.1]octan-8-yl)pyridin-2-yl)oxy)cyclobutyl)methyl)piperidin-4-yl)methyl)-2,7-diazaspiro[3.5]nonan-7-yl)isoxazol-5-yl)-3-methylbutanoyl)-4-hydroxy-N-((S)-1-(4-(4-methylthiazol-5-yl)phenyl)ethyl)pyrrolidine-2-carboxamide]",DC50,[4],> 30 nM
"Cc1cc([C@@H](C(=O)N2C[C@H](O)C[C@H]2C(=O)N[C@@H](COCCOCCNc2ccc(-c3ccccc3O)nn2)c2ccc(-c3scnc3C)cc2)C(C)C)on1 [compound 525, (2S,4R)-4-hydroxy-N-((R)-2-(2-(2-((6-(2-hydroxyphenyl)pyridazin-3-yl)amino)ethoxy)ethoxy)-1-(4-(4-methylthiazol-5-yl)phenyl)ethyl)-1-((S)-3-methyl-2-(3-methylisoxazol-5-yl)butanoyl)pyrrolidine-2-carboxamide]",DC50,[1],> 30 nM
